Usually IC50 stands for the concentration needed to halve the response being measured. A low value points to higher potency.

The nature of the test: Inhibition of CCL3 induced chemotaxis in human T lymphocytes.

In turn, `CNC(=O)[C@H](CC(C)C)C[C@H](O)[C@H](CC1CCCCC1)NC(=O)c1cnc2ccccc2c1` [Quinoline-3-carboxylic acid ((1S,2S,7R)-1-cyclohexylmethyl-2-hydroxy-6-methyl-4-methylcarbamoyl-heptyl)-amide] gave an IC50 of 840 nM.

In turn, `CC(C)(F)CCC(C[C@H](O)[C@H](Cc1ccccc1)NC(=O)c1cnc2ccccc2n1)C(=O)NCc1ccccc1` (stereo partly drawn) [Quinoxaline-2-carboxylic acid ((1S,2S)-1-benzyl-4-benzylcarbamoyl-7-fluoro-2-hydroxy-7-methyl-octyl)-amide] returned an IC50 of 440 nM.

`NC(=O)C(C[C@H](O)[C@H](Cc1ccccc1)NC(=O)c1cnc2ccccc2n1)C1CCCCC1` (stereo partly drawn) [Quinoxaline-2-carboxylic acid ((1S,2S)-1-benzyl-4-carbamoyl-4-cyclohexyl-2-hydroxy-butyl)-amide] came in with an IC50 of 5 nM.

As for `CCNC(=O)C(CCC(C)(C)F)C[C@H](O)[C@H](Cc1ccccc1)NC(=O)c1cnc2ccccc2n1` (stereo partly drawn) [Quinoxaline-2-carboxylic acid ((1S,2S)-1-benzyl-4-ethylcarbamoyl-7-fluoro-2-hydroxy-7-methyl-octyl)-amide], the IC50 came to 130 nM.

On to `CC(C)(F)CCC(C[C@H](O)[C@H](Cc1ccccc1)NC(=O)c1cnc2ccccc2n1)C(=O)NO` (stereo partly drawn) [Quinoxaline-2-carboxylic acid ((1S,2S)-1-benzyl-7-fluoro-2-hydroxy-4-hydroxycarbamoyl-7-methyl-octyl)-amide], for which the IC50 is 31 nM.

As for `CC(C)(F)CCC(C[C@H](O)[C@H](Cc1ccccc1)NC(=O)c1cnc2ccccc2n1)C(=O)NN` (stereo partly drawn) [Quinoxaline-2-carboxylic acid ((1S,2S)-1-benzyl-7-fluoro-4-hydrazinocarbonyl-2-hydroxy-7-methyl-octyl)-amide], the IC50 turned out to be 1 nM.

`CC(C)(O)CC[C@H](C[C@H](O)[C@H](Cc1ccccc1)NC(=O)c1cnc2ccccc2n1)C(N)=O` [Quinoxaline-2-carboxylic acid ((1S,2S,4R)-1-benzyl-4-carbamoyl-2,7-dihydroxy-7-methyl-octyl)-amide] returned an IC50 of 1180 nM. This IC50 lies about 1200-fold higher than the previous one.

As to `CC(C)CC[C@H](C[C@H](O)[C@H](Cc1ccccc1)NC(=O)c1cnc2ccccc2n1)C(N)=O` [Quinoxaline-2-carboxylic acid ((1S,2S,4R)-1-benzyl-4-carbamoyl-2-hydroxy-7-methyl-octyl)-amide], half-maximal inhibition (IC50) required 2 nM.

For the compound `CC(C)(F)CC[C@H](C[C@H](O)[C@H](Cc1ccccc1)NC(=O)c1cnc2ccccc2n1)C(N)=O` [Quinoxaline-2-carboxylic acid ((1S,2S,4R)-1-benzyl-4-carbamoyl-7-fluoro-2-hydroxy-7-methyl-octyl)-amide], half-maximal inhibition (IC50) was put at 13 nM. Compared with the last compound, the IC50 is about 6.5-fold higher.

`O=C(N[C@@H](Cc1ccccc1)[C@@H](O)CC(C(=O)NO)C1CCC(F)(F)CC1)c1cnc2ccccc2n1` (stereo partly drawn) [Quinoxaline-2-carboxylic acid [(1S,2S)-1-benzyl-4-(4,4-difluoro-cyclohexyl)-2-hydroxy-4-hydroxycarbamoyl-butyl]-amide] yielded an IC50 of 8 nM. This IC50 lies about 1.6-fold lower than the previous one.

For the compound `NC(=O)C(C[C@H](O)[C@H](Cc1ccccc1)NC(=O)c1cnc2ccccc2n1)C1(O)CCCCC1` (stereo partly drawn) [Quinoxaline-2-carboxylic acid [(1S,2S)-1-benzyl-4-carbamoyl-2-hydroxy-4-(1-hydroxy-cyclohexyl)-butyl]-amide], inhibition was half-maximal at 120 nM (IC50).

`NC(=O)C(C[C@H](O)[C@H](Cc1ccccc1)NC(=O)c1cnc2ccccc2n1)C1CCOCC1` (stereo partly drawn) [Quinoxaline-2-carboxylic acid [(1S,2S)-1-benzyl-4-carbamoyl-2-hydroxy-4-(tetrahydro-pyran-4-yl)-butyl]-amide] had a half-maximal inhibitory concentration (IC50) of 12500 nM.

Consider `NC(=O)C(C[C@H](O)[C@H](Cc1ccccc1)NC(=O)c1cnc2ccccc2n1)C1(O)CCC(F)(F)CC1` (stereo partly drawn) [Quinoxaline-2-carboxylic acid [(1S,2S)-1-benzyl-4-carbamoyl-4-(4,4-difluoro-1-hydroxy-cyclohexyl)-2-hydroxy-butyl]-amide], for which the IC50 was found to be 68 nM.

Compound `NC(=O)C(C[C@H](O)[C@H](Cc1ccccc1)NC(=O)c1cnc2ccccc2n1)C1CCC(F)(F)CC1` (stereo partly drawn) [Quinoxaline-2-carboxylic acid [(1S,2S)-1-benzyl-4-carbamoyl-4-(4,4-difluoro-cyclohexyl)-2-hydroxy-butyl]-amide] displayed an IC50 of 220 nM.

With `CN1CCN(C(=O)C(CCC(C)(C)F)C[C@H](O)[C@H](Cc2ccccc2)NC(=O)c2cnc3ccccc3n2)CC1` (stereo partly drawn) [Quinoxaline-2-carboxylic acid [(1S,2S)-1-benzyl-7-fluoro-2-hydroxy-7-methyl-4-(4-methyl-piperazine-1-carbonyl)-octyl]-amide], half-maximal inhibition (IC50) required 7050 nM.

In the case of `CC(C)(F)CCC(C[C@H](O)[C@H](Cc1ccccc1)NC(=O)c1cnc2ccccc2n1)C(=O)N1CCCC1` (stereo partly drawn) [Quinoxaline-2-carboxylic acid [(1S,2S)-1-benzyl-7-fluoro-2-hydroxy-7-methyl-4-(pyrrolidine-1-carbonyl)-octyl]-amide], the IC50 came to 740 nM.

As for `CC(C)(O)CCC(C[C@H](O)[C@H](Cc1ccccc1F)NC(=O)c1cnc2ccccc2n1)C(N)=O` (stereo partly drawn) [Quinoxaline-2-carboxylic acid [(1S,2S)-4-carbamoyl-1-(2-fluoro-benzyl)-2,7-dihydroxy-7-methyl-octyl]-amide], half-maximal inhibition (IC50) required 680 nM.
